We go through six compounds from PubChem BioAssay (NCI).

Values joined by “and” are separate entries in the source; they are usually repeats but may differ in a detail not shown here. Equal entries are not always repeated.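 48-hour exposure; five concentrations; linearly interpolated endpoints. At the GI50, growth is halved. TGI: total growth inhibition.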

What all share (experiment): inhibition of tumour cell growth, NCI panel, 48 h
In assay [1] the test system is HCC-2998 colon.
Assay [2] relates to RXF 393 renal.
In assay [3] the test system is NCI-H522 lung.
Assay [4] deals with HCT-116 colon.
Assay [5] has as its system NCI-H460 lung.
In assay [6] the test system is IGROV1 ovarian.
The subject of assay [7] is COLO 205 colon.
Assay [8] concerns MCF7 breast.
Assay [9] relates to SK-MEL-2 melanoma.
Assay [10] deals with RPMI-8226 leukemia.

In the case of `CN1CCN(C(=O)/C=C/c2ccc([N+](=O)[O-])o2)CC1`, the GI50 was 18.2 µM in [1]; 2.88 µM in assay [2]; 2.72 µM in [3]; 10.5 µM in assay [4]; 14.9 µM in assay [5]; 10.8 µM in assay [6]. Further, the GI50 was 3.76 µM in assay [7], 10.9 µM in assay [8], 6.5 µM in [9] and 16 µM in assay [10]. The TGI worked out at 38.1 µM in assay [1]; 12.4 µM in assay [2]; 5.74 µM in [3]; 22.4 µM in assay [4]; 45.1 µM in assay [5]; 36.4 µM in assay [6]. The TGI in assay [7] came out at 15 µM; in [8], 38.1 µM; in assay [9], 29.6 µM; in [10], 64.5 µM.
On to `COc1ccc([C@@H]2[C@@H](Oc3ccccc3)C(=O)N2c2cc(OC)c(OC)c(OC)c2)cc1F`, for which the GI50 in assay [1] is 0.524 µM; in assay [2], 0.0593 µM; in assay [3] it was 0.0276 µM; in [4], 0.161 µM; in [5] it was 0.155 µM; in assay [6] it was 0.257 µM. Further, the GI50 in assay [7] was 0.235 µM; in assay [8], 0.0409 µM; in assay [9], 0.447 µM; in assay [10], 0.207 µM. Besides, the TGI was above 100 µM in assay [1]; above 100 µM in assay [2]; 0.332 µM in assay [3]; 2.45 µM in assay [4]; above 100 µM in assay [5]; above 100 µM in [6]. Besides, the TGI was 0.972 µM in assay [7], above 100 µM in [8], above 100 µM in [9] and 5.64 µM in assay [10].
For `CNS(=O)(=O)Nc1nccc(Cc2c(C)c3ccc(Oc4ncccn4)cc3oc2=O)c1F`, the GI50 in assay [1] was 0.0209 µM and 0.00869 µM; in [2], 4.99 µM and 3.02 µM; in [3], 22.3 µM and > 10 µM; in [4], 0.07 µM and 0.103 µM; in assay [5] it was above 62 µM; in assay [6], 0.938 µM and 0.0955 µM. In addition, the GI50 in [7] is 0.0176 µM and 0.00703 µM; in [8], 57 µM and > 10 µM; in assay [9], < 0.01 µM and 0.00879 µM; in assay [10], 12.3 µM and > 9.21 µM. Further, the TGI in assay [1] is above 10 µM; in assay [2] it was above 100 µM; in assay [3] it was above 100 µM; in [4] it was above 100 µM; in assay [5], above 100 µM; in [6], above 100 µM. Further, the TGI in [7], in [8], in [9] and in assay [10] was above 100 µM each time.
`O=C1[C@H](Cc2ccc(O)cc2)N2C(=O)CCN(C(=O)NCc3ccccc3)[C@H]2CN1Cc1cccc2ccccc12`: the GI50 in [1] is 3.51 µM; in assay [2] it was 3.8 µM; in assay [3], 0.901 µM; in assay [4], 0.916 µM; in [5] it was 1.73 µM; in [6], 1.42 µM. Also, the GI50 was 0.748 µM in assay [7], 6.02 µM in assay [8], 2.64 µM in [9] and 3.66 µM in assay [10]. Moreover, the TGI in [1] amounted to 23.2 µM; in [2], 14.5 µM; in assay [3], 12 µM; in assay [4] it was 12.7 µM; in [5], 7.23 µM; in assay [6], 10.5 µM. Further, the TGI in assay [7] turned out to be 2.76 µM; in assay [8], 39 µM; in assay [9] it was 9.18 µM; in assay [10], 23.1 µM.
Turning to `CCOC(=O)C#Cc1c(C(=O)OCC)nnn1[C@@H]1O[C@H](COC)[C@@H](OC)[C@H]1OC`, the GI50 in [1] was 18 µM; in assay [2] it was 1.97 µM; in [3], 1.97 µM; in assay [4], 3.33 µM; in [5] it was 17.8 µM; in [6], 18.4 µM. The GI50 in assay [7] was 1.94 µM; in [8] it was 2.85 µM; in assay [9] it was 16.6 µM; in assay [10], 4.16 µM. The TGI in [1] turned out to be 32.8 µM; in assay [2], 4.14 µM; in [3] it was 3.9 µM; in assay [4] it was 10.7 µM; in [5], 36.2 µM; in assay [6] it was 39.6 µM. In addition, the TGI in [7] amounted to 3.83 µM; in assay [8], 12.7 µM; in assay [9], 32.9 µM; in assay [10], 17.2 µM.
On to `O=S(=O)(Nc1ccccc1)c1ccc(C2CC3(Cl)C(Cl)=C(Cl)C2(Cl)C3(Cl)Cl)cc1` (stereo not given), for which the GI50 in assay [1] was 1.81 µM; in [2], 1.79 µM; in assay [3] it was 2.27 µM; in [4] it was 1.81 µM; in assay [5] it was 1.96 µM; in assay [6], 2.24 µM. Further, the GI50 was 1.98 µM in assay [7], 2.59 µM in assay [8], 2.23 µM in assay [9] and 2.53 µM in assay [10]. Besides, the TGI was determined as 3.46 µM in assay [1]; 3.38 µM in [2]; 5.67 µM in assay [3]; 3.44 µM in assay [4]; 3.72 µM in [5]; 5.13 µM in assay [6]. Also, the TGI in assay [7] was 3.48 µM; in [8], 7.67 µM; in assay [9], 4.16 µM; in [10], 7.28 µM.
